Source: patent US20080312344A1, “DENDRIMERS MULTIVALENTLY SUBSTITUTED WITH ACTIVE GROUPS” (priority 2005, published 2008)

Experiments:
rat receptor NKRPI = biological target: T1, rat receptor NKRPI (Rattus norvegicus, UniProt P27471); assay: ELISA type assay, interaction with NKRPI receptor; type: binding
T1 sequence (P27471 1-223): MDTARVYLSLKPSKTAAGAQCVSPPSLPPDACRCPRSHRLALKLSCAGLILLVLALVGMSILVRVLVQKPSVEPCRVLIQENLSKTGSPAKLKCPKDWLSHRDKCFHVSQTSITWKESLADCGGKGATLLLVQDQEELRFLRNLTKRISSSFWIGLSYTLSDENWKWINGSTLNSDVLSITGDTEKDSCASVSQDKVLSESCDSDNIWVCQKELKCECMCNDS
Description: (§1) In addition, as a model for the interference with the natural killer cells of the immune system, the compounds were evaluated in an ELISA type assay for their interaction with the rat receptor NKRPI and the human CD 69 receptor.

human CD 69 receptor = biological target: T2, human CD 69 receptor (Homo sapiens, UniProt Q07108); assay: ELISA type assay, interaction with CD 69 receptor; type: binding
T2 sequence (Q07108 1-199): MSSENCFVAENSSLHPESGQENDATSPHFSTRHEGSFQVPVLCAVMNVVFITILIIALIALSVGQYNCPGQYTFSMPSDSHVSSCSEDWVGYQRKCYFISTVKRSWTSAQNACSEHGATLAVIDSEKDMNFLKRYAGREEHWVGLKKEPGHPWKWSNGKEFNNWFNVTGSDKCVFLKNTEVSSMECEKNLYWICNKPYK
Description: as §1

[1] = tested on: Candida albicans (strain CBS 562); assay: adhesion inhibition of Candida albicans; type: cell-based; details: CBS562
Description: Di-, tetra- and octavalent GINAc-linked “click” glycodendrimers as depicted herein-below were evaluated as adhesion inhibitors of Candida albicans (strain CBS 562) and compared to the free monosaccharide GlcNAc (N-acetyl glucosamine).

| −log IC50 (NKRPI) (rat receptor NKRPI) | −log IC50 (CD69) (human CD 69 receptor) | Compound | inhibition at 113 µM [1] | IC50 (rat receptor NKRPI; read-out: −log IC50 (NKRPI) (converted)) | IC50 (human CD 69 receptor; read-out: −log IC50 (CD69) (converted)) |
| --- | --- | --- | --- | --- | --- |
| 8.5 | 7.54 | COC(=O)c1cc(OCCNC(=O)c2cc(OCc3cn(CCCOC4OC(CO)C(O)C(O)C4NC(C)=O)nn3)cc(OCc3cn(CCCOC4OC(CO)C(O)C(O)C4NC(C)=O)nn3)c2)cc(OCCNC(=O)c2cc(OCc3cn(CCCOC4OC(CO)C(O)C(O)C4NC(C)=O)nn3)cc(OCc3cn(CCCOC4OC(CO)C(O)C(O)C4NC(C)=O)nn3)c2)c1 (centres unmarked) [TETRA] | – | – | – |
| – | – | CC(=O)N[C@H]1C(O)O[C@H](CO)[C@@H](O)[C@@H]1O (some centres unmarked) [GlcNAc, N-acetyl glucosamine, reference compound] | 79% | 1 µM | 5.01 µM |
